Experiments:
[1] = test system: CT26 (mouse colon cancer); experiment: DCE-MRI of tumor vascularity (Kep) in CT26 tumor mice; format: in vivo
Description: To determine whether the occurrence of central necrosis of tumors 24 hours after treatment was caused by the reduction of vascularity, DCE-MRI was used before the medication was administered and 24 hours after administration.
Inoculate CT26 (mouse colon cancer) 2×10^6 cell subcutaneously into mice on the upper parts of their thighs.
After checking the tumor size between 6 to 10 mm, acquire images through MRI.
Image Acquisition: Use a magnetic resonance imaging device (i.e., 3 Tesla Intera human clinical scanner; Philips medical systems) and a mouse coil with an inner diameter of 4 cm to get images. Acquire images before the drug is administered and those 24 hours after that for two days.
MR Pulse Sequence as follows: Dynamic Contrast enhanced MRI scan: FOV (mm)=50×35; RFOV (%)=71; Matrix scan=112; reconstruction=224; TR/TE (ms)=12/4.0; slice thickness=1 mm; slice number=11; dynamic scans=60.
i. Conduct an experiment to the subjects under anesthesia by using an inhalation anesthetic mixing 1.5% isoflurane in 100% oxygen at a flow rate of 1 L/min.
ii. Cannulate an intravenous injection line through the tail vein to inject a contrast agent.
iii. Use Gd-DTPA (Magnevist, Schering, Germany, 281 mg/kg) as a contrast agent and get pre-contrast images before injecting the contrast agent and post-contrast images after injecting it.
iv. After getting the images, inject KML001 (10 mg/kg) and Arsenic trioxide (7.5 mg/kg) intraperitoneally.
v. Get images through a dynamic scan again 24 hours after injection.
Accordingly, the groups of animals with which the DCE-MRI data was obtained are as follows: Group of animals treated with ATO: n=4, Group of animals treated with Saline: n=4 and Group of animals treated with KML001: n=6.
As the low data in MRI was mapped from each result of the DCE-MRI to the positive control group of animals treated with ATO, the negative control group of animals treated with saline and the experimental group of animals treated with KML001, Kep values important for tumor vascularity were calculated. Kep (rate constant) is the back diffusion rate constant from interstitial space to vascular space, reflecting leakage of tumor vessels, i.e., a measurement of vascularity.

[2] = test system: α-tubulin; experiment: Western blot of isolated (soluble) and polymerized tubulin from HUVECs; format: cell-based, Human; conditions: 1 uM, 10 uM and 20 uM, 24 hours, higher concentration
From the text: To investigate whether such apoptosis phenomenon is caused by a cytoskeletal abnormality that affects cell division and cell differentiation, the change in α-tubulin expression in the cytoskeleton was identified by the division of tubulin into isolated form (soluble, S) and polymerized form (ppt, P). HUVECs (obtained from ATCC) were cultivated in F25 culture flasks containing F-12K (Sigma) medium supplemented with 10% FBS and endothelial cell growth supplement (ECGS, E2759, Sigma). After cultivation for 24 hours, the cells were treated with sodium meta arsenite at a concentration of 1 uM, 10 uM and 20 uM. Cells were collected 24 hours after treatment. The collected cells were suspended in RIPA buffer (50 mM Tris, pH 7.5, 150 mM NaCl, 1% NP-40, 0.5% sodium deoxychloate, 0.1% SDS, protease inhibitor) at room temperature for 10 minutes and then centrifuged for 30 minutes at 22° C. at 13,200 rpm to separate the supernatant liquid from the sediment. RIPA solution was added to the sediment in the same amount and the sediment was crushed using an ultrasonic cell crusher. The protein from the supernatant liquid and the sediment were assayed using a BCA protein kit (Thermo, 23227) and then the same amount of protein (3 μg) was mixed with protein sample buffer and it was warmed up in a water bath in boiling water at 100° C. for five minutes. SDS-PAGE was conducted on a 10% gel. […]

[3] = test system: CT26 colon carcinoma cells; experiment: Observation of necrosis in tumor tissues after treatment (tumor images); format: in vivo; conditions: 10 mg/kg intraperitoneal; discolored at 24 hours after injection; BALB/c mice
Description: Seven-week-old, female, specific-pathogen-free (BALB/c) white mice (weight: approximately 20 g) purchased from ORIENTBIO Inc. (Seoul Korea) were subcutaneously injected with 2×10^6 of CT26 colon carcinoma cells per mouse. When the tumor size became 3 mm in diameter, the control group was injected with a phosphate buffered saline (PBS) solution with 5% dextrose while the experimental group was intraperitoneally injected with 100 μL of sodium meta arsenite at a concentration of 10 mg/kg with 5% dextrose. After injection, the measurements of the size of tumors (volume=πab^2/6, where a and b are diameters of tumors) by using the caliper once every two days and the images of the tumors were recorded for 15 days. While the discoloration of the tissues of the mice injected without sodium meta arsenite was not observed for a certain period of time, the central part of tumors in the tissues of the white mice injected with sodium meta arsenite became discolored at 24 hours after the injection of sodium meta arsenite. As time went by, it was observed that the tumors became discolored regardless of the injection of sodium meta arsenite.

[4] = test system: microtubules; experiment: Immunohistochemistry of microtubules in HUVECs (confocal microscopy); format: cell-based, Human; conditions: 1 uM, 5 uM and 10 uM, 24 and 48 hours, concentration dependent
Description: HUVECs were cultured in a confocal dish (made by SPL, Korea) with F-12K (Sigma) medium containing 10% FBS and endothelial cell growth supplement (ECGS, E2759, Sigma). After cultivation for 24 hours, the cells were treated with sodium meta arsenite at a concentration of 1 uM, 5 uM and 10 uM. At 24 hours and 48 hours after treatment, the cells were fixed with 3.7% paraformaldehyde at room temperature for 10 minutes. After washing with phosphate buffered saline (PBS) solution three times, the cells were treated with 0.15% Triton X-100 for 15 minutes and then washed three times with PBS solution. After blocking with 2% bovine serum albumin (BSA, Sigma) at room temperature for 60 minutes, the cells were washed three times with PBS solution. Monoclonal antibody against α-tubulin (SantaCruze, sc-32293) was reacted with the cells at room temperature for one hour and then the cells were washed three times with the PBS solution. The cells were then reacted with rat anti-mouse IgG1 secondary antibody (Pharmigen, #A85-1) conjugated to FITC. After being washed three times with PBS solution, they were analyzed using a confocal laser scanning microscope (OLYMPUS FV500,1×81).

O=[As][O-].[Na+] [sodium meta arsenite]
Kep values (back diffusion rate constant, tumor vascularity) ([1]; 24 hours after intraperitoneal injection vs pre-treatment, KML001 10 mg/kg, ATO 7.5 mg/kg): significantly reduced
contrast enhancement of the tumors in the MRI ([1]; 24 hours after treatment): decreased
protein level in sediment (polymerized tubulin) [2]: reduced the protein level
protein level in supernatant liquid (isolated tubulin) [2]: reduced the protein level
discoloration of the central part of tumors due to necrosis [3]: the tissues in the central part became discolored due to necrosis
total amount of microtubules [4]: reduction in the total amount of microtubules

Reference: patent US20120251628A1, “COMPOSITIONS AND METHODS FOR TREATMENT OF CANCER” (priority 2011, published 2012)
